From patent US20110053773A1, “METHODS OF IMPROVING NUTRITIONAL VALUE OF PLANTS” (UNIVERSITY OF TENNESSEE RESEARCH FOUNDATION, priority 2009, published 2011)

Columns and labels:
Type in all cases: in vivo
[1] = test system: sweet corn variety WH0809; test: Sugar content of sweet corn kernels (Example 2); settings: for Sugar content Raffanose: treated check 0.51; for Sugar content Maltose: treated check 0.61; for Sugar content Fructose: treated check 1.04; for Sugar content Glucose: treated check 1.91; for Sugar content Sucrose: treated check 10.72
Procedure: (§1) A field study was conducted at Greenback, TN to investigate POST applications of several herbicide inhibitors of photosynthesis for sweet corn safety and for changes in carbohydrate content in the kernels of sweet corn among treatments. Treatments included bentazon at 1120 and 2240 g ai/ha, linuron at 280 and 560 g ai/ha, metribuzin at 105 and 210 g ai/ha, and bromoxynil at 560 and 1120 g ai/ha. All treatments included a PRE application of a common residual corn herbicide in order to maintain weed free conditions. […] Sweet corn was harvested from the center two rows of each four row plot and weighed in the husk. Eight ears of corn were harvested from each plot and were pooled over replicates for analysis of key carbohydrates which included the sugars sucrose, fructose, glucose, maltose, and raffanose.

[2] = test system: sweet corn variety WH0809; test: Visual injury of sweet corn after POST herbicide inhibitors of photosynthesis (Example 2)
Procedure: as §1

[3] = test system: sweet corn variety WH0809; test: Sweet corn yield, harvested and weighed in the husk (Example 2); settings: treated check 9758.4
Procedure: as §1

CSc1nnc(C(C)(C)C)c(=O)n1N [METRIBUZIN, metribuzin]
Sugar content Raffanose ([1]; 105 g ai/ha + COC 1% v/v POST): 0.36 mg/g dw
Sugar content Maltose ([1]; 105 g ai/ha + COC 1% v/v POST): 0.49 mg/g dw
Sugar content Fructose ([1]; 105 g ai/ha + COC 1% v/v POST): 1.04 mg/g dw
Sugar content Glucose ([1]; 105 g ai/ha + COC 1% v/v POST): 1.79 mg/g dw
Sugar content Sucrose ([1]; 105 g ai/ha + COC 1% v/v POST): 9.35 mg/g dw
fructose increase compared to the untreated check ([1]; 210 g ai/ha): 115%
glucose increase compared to the untreated check ([1]; 210 g ai/ha): 106%
maltose increase compared to the untreated check ([1]; 210 g ai/ha): 74%
raffanose increase compared to the untreated check ([1]; 210 g ai/ha): 59%
sucrose increase compared to the untreated check ([1]; 210 g ai/ha): 103%
Sugar content Raffanose ([1]; 210 g ai/ha + COC 1% v/v POST): 0.81 mg/g dw
Sugar content Maltose ([1]; 210 g ai/ha + COC 1% v/v POST): 1.06 mg/g dw
Sugar content Fructose ([1]; 210 g ai/ha + COC 1% v/v POST): 2.24 mg/g dw
Sugar content Glucose ([1]; 210 g ai/ha + COC 1% v/v POST): 3.93 mg/g dw
Sugar content Sucrose ([1]; 210 g ai/ha + COC 1% v/v POST): 21.79 mg/g dw
Injury ([2]; 105 g ai/ha + COC 1% v/v POST, 1st of 3 Injury columns, rating date not given): 12%
Injury ([2]; 105 g ai/ha + COC 1% v/v POST, 2nd of 3 Injury columns (agrees with 14 DAT of b67)): 13%
Injury ([2]; 105 g ai/ha + COC 1% v/v POST, 3rd of 3 Injury columns, rating date not given): 5%
Injury ([2]; 210 g ai/ha + COC 1% v/v POST, 1st of 3 Injury columns, rating date not given): 17%
Injury ([2]; 210 g ai/ha + COC 1% v/v POST, 2nd of 3 Injury columns (agrees with 14 DAT of b67)): 30%
Injury ([2]; 210 g ai/ha + COC 1% v/v POST, 3rd of 3 Injury columns, rating date not given): 22%
YIELD ([3]; 105 g ai/ha + COC 1% v/v POST): 10715.4 kg
YIELD ([3]; 210 g ai/ha + COC 1% v/v POST): 8967.5 kg
